Measurements reported in patent US6737383B1, “Herbicidal oxadiazolidines” (priority 1999, dated 2004).

Key:
duck salad = test: Test B flood test duck salad; assay type: in vivo, Heteranthera limosa
Outline: (§1)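 Plants were grown to the 2-leaf stage before treatment with test chemical, then held in a greenhouse for twelve to sixteen days. Injury was visually rated against untreated controls on a 0–10 scale, where 0 is no effect and 10 is complete control.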

surinam grass = test: Test B pre/postemergence surinam grass; assay type: in vivo, Brachiaria decumbens
Outline: (§2)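 Herbicidal effect was estimated by eye on a ten-point control scale after plants spent twelve to sixteen days in a greenhouse following soil or foliar treatment. Foliar sprays targeted plants at one to four leaves; all doses were formulated in a non-phytotoxic solvent with surfactant.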

rape = test: Test B pre/postemergence rape; assay type: in vivo, Brassica napus
Outline: as §2

wild oat = test: Test B pre/postemergence wild oat; assay type: in vivo, Avena fatua
Outline: as §2

blackgrass = test: Test B pre/postemergence blackgrass; assay type: in vivo, Alopecurus myosuroides
Outline: as §2

purple nutsedge = test: Test B pre/postemergence purple nutsedge; assay type: in vivo, Cyperus rotundus
Outline: as §2

bedstraw = test: Test B pre/postemergence bedstraw; assay type: in vivo, Galium aparine
Outline: as §2

rice = test: Test B flood test rice; assay type: in vivo, Oryza sativa
Outline: as §1

wheat = test: Test B pre/postemergence wheat; assay type: in vivo, Triticum aestivum
Outline: as §2

sugar beet = test: Test B pre/postemergence sugar beet; assay type: in vivo, Beta vulgaris
Outline: as §2

crabgrass = test: Test B pre/postemergence crabgrass; assay type: in vivo, Digitaria sanguinalis
Outline: as §2

velvetleaf = test: Test B pre/postemergence velvetleaf; assay type: in vivo, Abutilon theophrasti
Outline: as §2

soybean = test: Test B pre/postemergence soybean; assay type: in vivo, Glycine max
Outline: as §2

corn = test: Test B pre/postemergence corn; assay type: in vivo, Zea mays
Outline: as §2

pigweed = test: Test B pre/postemergence pigweed; assay type: in vivo, Amaranthus retroflexus
Outline: as §2

smallflower flatsedge = test: Test B flood test smallflower flatsedge; assay type: in vivo, Cyperus difformis
Outline: as §1

[1] = Rate 31 g/ha, Pre-emergence section (flood test species), scale 0 to 10
[2] = Rate 62 g/ha, headed Pre-emergence (flood test species), scale 0 to 10 (0 no effect, 10 complete control)
[3] = Rate 125 g/ha, Pre-emergence, flood test species, scale 0 to 10 where 0 is no effect and 10 is complete control
[4] = Rate 250 g/ha, Pre-emergence, flood-test species, scale 0 to 10, 0 is no effect, 10 is complete control
[5] = Preemergence, Rate 31 g/ha, visual rating, scale 0 to 10 (0 no effect, 10 complete control)
[6] = Preemergence, Rate 62 g/ha, scale of 0 to 10 where 0 is no effect and 10 is complete control
[7] = Rate 31 g/ha, Postemergence, scale 0 to 10
[8] = Rate 62 g/ha, Postemergence, scale of 0 to 10 where 0 is no effect and 10 is complete control
[9] = Rate 125 g/ha, Preemergence, scale of 0 to 10 where 0 is no effect and 10 is complete control
[10] = Preemergence, Rate 250 g/ha, scale of 0 to 10 where 0 is no effect and 10 is complete control
[11] = Rate 125 g/ha, Postemergence, scale 0 to 10

CCCCn1c(=O)on(C(=O)N(c2ccc(F)cc2)C(C)C)c1=O [Compound 221]
3: B. signalgrass plant response rating (surinam grass; Rate 125 g/ha, Postemergence, scale 0 (no effect) to 10 (complete control)) | Plant response rating (0 to 10; 0 is no effect, 10 is complete control), Soybean (soybean; Rate 250 g/ha, Postemergence)
0: Ducksalad plant response rating (duck salad; [1]) | Ducksalad plant response rating (duck salad; [2]) | Ducksalad plant response rating (duck salad; [3]) | Ducksalad plant response rating (duck salad; [4]) | B. signalgrass plant response rating (surinam grass; [7]) | B. signalgrass plant response rating (surinam grass; [8]) | Rape plant response rating (rape; [5]) | Rape plant response rating (rape; [6]) | Rape plant response rating (rape; [7]) | Rape plant response rating (rape; [8]) | Wild oats plant response rating (wild oat; [8]) | Wild oats plant response rating (wild oat; [11]) | Nutsedge plant response rating (purple nutsedge; [5]) | Nutsedge plant response rating (purple nutsedge; [6]) | Nutsedge plant response rating (purple nutsedge; [10]) | Nutsedge plant response rating (purple nutsedge; [7]) | Nutsedge plant response rating (purple nutsedge; [8]) | Nutsedge plant response rating (purple nutsedge; [11]) | Nutsedge plant response rating (purple nutsedge; [9]) | Plant response rating (0 to 10; 0 is no effect, 10 is complete control), Nutsedge (purple nutsedge; Rate 250 g/ha, Postemergence) | Bedstraw plant response rating (bedstraw; [5]) | Bedstraw plant response rating (bedstraw; [6]) | Rice plant response rating (rice; [1]) | Rice plant response rating (rice; [2]) | Rice plant response rating (rice; [3]) | Rice plant response rating (rice; [4]) | Wheat plant response rating (wheat; [5]) | Wheat plant response rating (wheat; [6]) | Wheat plant response rating (wheat; [8]) | Sugarbeets plant response rating (sugar beet; [5]) | Sugarbeets plant response rating (sugar beet; [6]) | Sugarbeets plant response rating (sugar beet; [8]) | Crabgrass plant response rating (crabgrass; [7]) | Velvetleaf plant response rating (velvetleaf; [5]) | Velvetleaf plant response rating (velvetleaf; [6]) | Velvetleaf plant response rating (velvetleaf; [10]) | Velvetleaf plant response rating (velvetleaf; [8]) | Velvetleaf plant response rating (velvetleaf; [11]) | Velvetleaf plant response rating (velvetleaf; [9]) | Plant response rating (0 to 10; 0 is no effect, 10 is complete control), Velvetleaf (velvetleaf; Rate 250 g/ha, Postemergence) | Soybean plant response rating (soybean; [5]) | Soybean plant response rating (soybean; [6]) | Soybean plant response rating (soybean; [10]) | Soybean plant response rating (soybean; [9]) | Corn plant response rating (corn; [5]) | Corn plant response rating (corn; [6]) | Corn plant response rating (corn; [10]) | Corn plant response rating (corn; [7]) | Corn plant response rating (corn; [8]) | Corn plant response rating (corn; [11]) | Corn plant response rating (corn; [9]) | Plant response rating (0 to 10; 0 is no effect, 10 is complete control), Corn (corn; Rate 250 g/ha, Postemergence) | S. Flatsedge plant response rating (smallflower flatsedge; [1]) | S. Flatsedge plant response rating (smallflower flatsedge; [2]) | S. Flatsedge plant response rating (smallflower flatsedge; [3]) | S. Flatsedge plant response rating (smallflower flatsedge; [4])
9: Blackgrass plant response rating (blackgrass; [11]) | Plant response rating (0 to 10; 0 is no effect, 10 is complete control), Blackgrass (blackgrass; Rate 250 g/ha, Postemergence) | Plant response rating (0 to 10; 0 is no effect, 10 is complete control), Bedstraw (bedstraw; Rate 250 g/ha, Postemergence) | Redroot pigweed plant response rating (pigweed; [6])
7: Blackgrass plant response rating (blackgrass; [10]) | Blackgrass plant response rating (blackgrass; [9]) | Bedstraw plant response rating (bedstraw; [11]) | Redroot pigweed plant response rating (pigweed; [5])
5: B. signalgrass plant response rating (surinam grass; [6]) | B. signalgrass plant response rating (surinam grass; [9]) | Blackgrass plant response rating (blackgrass; [5]) | Blackgrass plant response rating (blackgrass; [6])
4: Rape plant response rating (rape; [11]) | Plant response rating (0 to 10; 0 is no effect, 10 is complete control), Rape (rape; Rate 250 g/ha, Postemergence) | Wild oats plant response rating (wild oat; [10]) | Bedstraw plant response rating (bedstraw; [10]) | Bedstraw plant response rating (bedstraw; [9]) | Plant response rating (0 to 10; 0 is no effect, 10 is complete control), Wheat (wheat; Rate 250 g/ha, Postemergence) | Sugarbeets plant response rating (sugar beet; [11]) | Sugarbeets plant response rating (sugar beet; [9]) | Plant response rating (0 to 10; 0 is no effect, 10 is complete control), Sugarbeets (sugar beet; Rate 250 g/ha, Postemergence)
2: B. signalgrass plant response rating (surinam grass; [5]) | Wild oats plant response rating (wild oat; [5]) | Wild oats plant response rating (wild oat; [6]) | Wild oats plant response rating (wild oat; [9]) | Plant response rating (0 to 10; 0 is no effect, 10 is complete control), Wild oats (wild oat; Rate 250 g/ha, Postemergence) | Blackgrass plant response rating (blackgrass; [7]) | Blackgrass plant response rating (blackgrass; [8]) | Bedstraw plant response rating (bedstraw; [7]) | Bedstraw plant response rating (bedstraw; [8]) | Wheat plant response rating (wheat; [10]) | Wheat plant response rating (wheat; [11]) | Wheat plant response rating (wheat; [9]) | Crabgrass plant response rating (crabgrass; [5]) | Crabgrass plant response rating (crabgrass; [8]) | Soybean plant response rating (soybean; [8]) | Soybean plant response rating (soybean; [11]) | Redroot pigweed plant response rating (pigweed; [7])
6: B. signalgrass plant response rating (surinam grass; Preemergence, Rate 250 g/ha, scale 0 to 10, 0 is no effect, 10 is complete control) | Rape plant response rating (rape; [9]) | Crabgrass plant response rating (crabgrass; [6]) | Crabgrass plant response rating (crabgrass; [11]) | Redroot pigweed plant response rating (pigweed; [8])
8: Plant response rating (0 to 10; 0 is no effect, 10 is complete control), B. signalgrass (surinam grass; Rate 250 g/ha, Postemergence) | Rape plant response rating (rape; [10]) | Crabgrass plant response rating (crabgrass; [10]) | Crabgrass plant response rating (crabgrass; [9]) | Plant response rating (0 to 10; 0 is no effect, 10 is complete control), Crabgrass (crabgrass; Rate 250 g/ha, Postemergence) | Redroot pigweed plant response rating (pigweed; [11]) | Plant response rating (0 to 10; 0 is no effect, 10 is complete control), Redroot pigweed (pigweed; Rate 250 g/ha, Postemergence)
10: Sugarbeets plant response rating (sugar beet; [10]) | Redroot pigweed plant response rating (pigweed; [10]) | Redroot pigweed plant response rating (pigweed; [9])
